Reference: patent US10000473B2, “Indazole derivatives useful as glucagon receptor antagonists” (Janssen Pharmaceutica NV, priority 2016, dated 2018)

The compounds below were run against T1, human GCGR (Homo sapiens, UniProt P47871) (assay: Cellular functional assay, cAMP readout (glucagon-stimulated cAMP, LANCE TR-FRET)). Conditions: HEK293 cells stably expressing full-length human GCGR; glucagon 100 pM; IC50 converted to Ki; read-out: Inhibition of cAMP Ki.
T1 construct: expressed in transfected cells; host or cells: HEK293 (hGluc-1HEK), pcDNA3.1, G418 selection
T1 sequence (P47871 26-477): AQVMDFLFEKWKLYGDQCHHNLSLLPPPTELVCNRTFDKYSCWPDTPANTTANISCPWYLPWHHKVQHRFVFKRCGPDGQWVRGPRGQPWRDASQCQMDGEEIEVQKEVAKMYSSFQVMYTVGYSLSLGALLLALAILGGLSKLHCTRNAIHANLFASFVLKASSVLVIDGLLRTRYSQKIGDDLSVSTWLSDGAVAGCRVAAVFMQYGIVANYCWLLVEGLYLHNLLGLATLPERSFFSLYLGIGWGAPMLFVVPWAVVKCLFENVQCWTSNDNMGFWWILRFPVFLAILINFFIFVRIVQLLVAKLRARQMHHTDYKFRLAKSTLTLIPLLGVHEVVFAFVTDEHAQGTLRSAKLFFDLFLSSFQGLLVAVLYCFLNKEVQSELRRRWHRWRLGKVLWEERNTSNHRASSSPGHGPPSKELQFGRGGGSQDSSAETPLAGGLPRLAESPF
Format: cell-based

Row | SMILES | Ki [nM]
1 | CC(C)CCC(c1ccc(C(=O)NCCC(=O)O)cc1)n1cc2cc(-c3ccc(C(C)(C)C)cc3)ccc2n1 (centres unmarked) [Compound #227, 3-(4-(1-(5-(4-(tert-Butyl)phenyl)-2H-indazol-2-yl)-4-methylpentyl)benzamido)propanoic acid] | 330
2 | CC(C)(C)c1ccc(-c2ccc3nn(C(CC4CCCCC4)c4ccc(C(=O)NCCC(=O)O)cc4)cc3c2)cc1 (centres unmarked) [Compound #228, 3-(4-(1-(5-(4-(tert-Butyl)phenyl)-2H-indazol-2-yl)-2-cyclohexylethyl)benzamido)propanoic acid] | 130
3 | Cc1cc2c(cnn2[C@H](CC(C)C)c2ccc(C(=O)NCCC(=O)O)cc2)cc1-c1ccc(C(F)(F)F)cc1 [Compound #229, 3-[[4-[(1R)-3-Methyl-1-[6-methyl-5-[4-(trifluoromethyl)phenyl]indazol-1-yl]butyl]benzoyl]amino]propanoic acid] | 1550
4 | COc1c(-c2ccc(C(F)(F)F)cc2C)ccc2nn(C(CC(C)C)c3ccc(C(=O)NCCC(=O)O)cc3)cc12 (centres unmarked) [Compound #233, 3-(4-(1-(4-Methoxy-5-(2-methyl-4-(trifluoromethyl)phenyl)-2H-indazol-2-yl)-3-methylbutyl)benz-amido)propanoic acid] | 24
5 | COc1c(-c2ccc(C(F)(F)F)cc2C)ccc2nn(C(CC(C)C)c3ccc(C(=O)NCCC(=O)O)nc3)cc12 (centres unmarked) [Compound #236, 3-(5-(1-(4-Methoxy-5-(2-methyl-4-(trifluoromethyl)phenyl)-2H-indazol-2-yl)-3-methylbutyl)picolinamido)propanoic acid] | 12
6 | O=C(O)CCNC(=O)c1ccc(C(CCC2CCC2)n2ncc3cc(-c4ccc(C(F)(F)F)cc4)ccc32)cc1 (centres unmarked) [Compound #239, 3-(4-(3-Cyclobutyl-1-(5-(4-(trifluoromethyl)phenyl)-1H-indazol-1-yl)propyl)benzamido)propanoic acid] | 260
7 | Cc1c(-c2ccc(C(F)(F)F)cc2Cl)ccc2c1cnn2[C@@H](CC(C)C)c1ccc(C(=O)NCCC(=O)O)cc1 [Compound #241, (S)-3-(4-(1-(5-(2-Chloro-4-(trifluoromethyl)phenyl)-4-methyl-1H-indazol-1-yl)-3-methylbutyl)benzamido)propanoic acid] | 42
8 | Cc1cc2nn(C(CC(C)C)c3ccc(C(=O)NCCC(=O)O)nc3)cc2cc1-c1ccc(C(F)(F)F)cc1Cl (centres unmarked) [Compound #242, 3-[[5-[1-[5-[2-Chloro-4-(trifluoromethyl)phenyl]-6-methyl-indazol-2-yl]-3-methyl-butyl]pridine-2-carbonyl]amino]propanoic acid] | 65
9 | Cc1cc(C(F)(F)F)ccc1-c1ccc2nn(C(CC(C)C)c3ccc(C(=O)NCCC(=O)O)nc3)cc2c1C(F)(F)F (centres unmarked) [Compound #246, 3-(5-(3-Methyl-1-(5-(2-methyl-4-(trifluoromethyl)phenyl)-4-(trifluoromethyl)-2H-indazol-2-yl)butyl)picolinamido)propanoic acid] | > 5200
10 | COc1c(-c2ccc(C(F)(F)F)cc2Cl)ccc2c1cnn2C(CC(C)C)c1ccc(C(=O)NCCC(=O)O)nc1 (centres unmarked) [Compound #250, 3-(5-(1-(5-(2-Chloro-4-(trifluoromethyl)phenyl)-4-methoxy-1H-indazol-1-yl)-3-methylbutyl)picolinamido)propanoic acid] | 55
11 | Cc1cc(Cl)ccc1-c1ccc2nn(C(CC(C)C)c3ccc(C(=O)NCCC(=O)O)nc3)cc2c1 (centres unmarked) [Compound #252, 3-(5-(1-(5-(4-Chloro-2-methylphenyl)-2H-indazol-2-yl)-3-methylbutyl)picolinamido)propanoic acid] | 271
12 | CC(C)(F)CC(c1ccc(C(=O)NCCC(=O)O)cc1)n1cc2cc(-c3ccc(C(F)(F)F)cc3)ccc2n1 (centres unmarked) [Compound #256, 3-(4-(3-Fluoro-3-methyl-1-(5-(4-(trifluoromethyl)phenyl)-2H-indazol-2-yl)butyl)benzamido)propanoic acid] | 200
13 | Cc1cc(C(F)(F)F)ccc1-c1ccc2c(cnn2C(CC(C)C)c2ccc(C(=O)NCCC(=O)O)nc2)c1C (centres unmarked) [Compound #258, 3-(5-(3-Methyl-1-(4-methyl-5-(2-methyl-4-(trifluoromethyl)phenyl)-1H-indazol-1-yl)butyl)picolinamido)propanoic acid] | 65
14 | Cc1cc2c(cnn2C(CC(C)C)c2ccc(C(=O)NCCC(=O)O)nc2)cc1-c1ccc(C(F)(F)F)cc1Cl (centres unmarked) [Compound #259, 3-[[5-[1-[5-[2-Chloro-4-(trifluoromethyl)phenyl]-6-methyl-indazol-1-yl]-3-methyl-butyl]pridine-2-carbonyl]amino]propanoic acid] | 37
15 | CC(C)CC(c1ccc(C(=O)NCCC(=O)O)nc1)n1cc2cc(-c3cc4ccccc4o3)ccc2n1 (centres unmarked) [Compound #260, 3-(5-(1-(5-(Benzofuran-2-yl)-2H-indazol-2-yl)-3-methylbutyl)picolinamido)propanoic acid] | 135
16 | Cc1cc(C(F)(F)F)ccc1-c1cc2cnn(C(CC(C)C)c3ccc(C(=O)NCCC(=O)O)cc3)c2cc1Cl (centres unmarked) [Compound #261, 3-[[4-[1-[6-Chloro-5-[2-methyl-4-(trifluoromethyl)phenyl]indazol-1-yl]-3-methyl-butyl]benzoyl]amino]propanoic acid] | 105
17 | CC(C)CCC(c1ccc(C(=O)NCCC(=O)O)cc1)n1cc2cc(-c3ccc(C(F)(F)F)cc3)ccc2n1 (centres unmarked) [compound 27] | 105
18 | Cc1ccc2sc(-c3ccc4nn(C(CC(C)C)c5ccc(C(=O)NCCC(=O)O)cc5)cc4c3)cc2c1 (centres unmarked) [compound 28] | 260
19 | O=C(O)CCNC(=O)c1ccc(C(CC2CC2)n2ncc3cc(-c4ccc(C(F)(F)F)cc4)ccc32)cc1 (centres unmarked) [compound 32] | 330
20 | CC(C)CC(c1ccc(C(=O)NCCC(=O)O)cc1)n1ncc2cc(-c3cnc4ccccc4c3)ccc21 (centres unmarked) [compound 46] | 750
21 | CC(C)CC(c1ccc(C(=O)NCCC(=O)O)nc1)n1ncc2cc(-c3cc4ccccc4s3)ccc21 (centres unmarked) [compound 48] | 470
22 | CC(C)CC(c1ccc(C(=O)NCCC(=O)O)cc1)n1cc2cc(-c3ccsc3)ccc2n1 (centres unmarked) [compound 51] | 750
23 | CC(C)CC(c1ccc(C(=O)NCCC(=O)O)cc1)n1cc2cc(-c3cc4ccc(F)cc4s3)ccc2n1 (centres unmarked) [compound 57] | 170

Further lines, results first:

Row | Ki [nM] | SMILES
24 | 155 | CC(C)CCC(c1ccc(C(=O)NCCC(=O)O)cc1)n1ncc2cc(-c3ccc(C(F)(F)F)cc3)ccc21 (centres unmarked) [compound 59]
25 | 300 | CCCC(c1ccc(C(=O)NCCC(=O)O)cc1)n1ncc2cc(-c3ccc(C(F)(F)F)cc3)ccc21 (centres unmarked) [compound 60]
26 | 52 | CC(C)(C)CC(c1ccc(C(=O)NCCC(=O)O)cc1)n1cc2cc(-c3ccc(C(F)(F)F)cc3)ccc2n1 (centres unmarked) [compound 61]
27 | 230 | Cc1ccc2cc(-c3ccc4c(cnn4C(CC(C)C)c4ccc(C(=O)NCCC(=O)O)cc4)c3)sc2c1 (centres unmarked) [compound 62]
28 | 240 | O=C(O)CCNC(=O)c1ccc(C(CCC(F)(F)C(F)(F)F)n2cc3cc(-c4ccc(C(F)(F)F)cc4)ccc3n2)cc1 (centres unmarked) [compound 65]
29 | 190 | CC(C)CC(c1ccc(C(=O)NCCC(=O)O)cc1)n1ncc2cc(-c3ccc4ccccc4c3)ccc21 (centres unmarked) [compound 71]
30 | > 2600 | Cc1cc(-c2ccc(C(C)(C)C)cc2)cc2cnn(C(CC(C)C)c3ccc(C(=O)NCCC(=O)O)nc3)c12 (centres unmarked) [compound 72]
31 | 62 | CC(C)CC(c1ccc(C(=O)NCCC(=O)O)cc1)n1ncc2cc(-c3cc4ccccc4s3)ccc21 (centres unmarked) [compound 73]
32 | 255 | CC(C)CC(c1ccc(C(=O)NCCC(=O)O)nc1)n1ncc2cc(-c3ccc(C(F)(F)F)cc3)ccc21 (centres unmarked) [compound 74]
33 | 135 | CC(C)CC(c1ccc(C(=O)NCCC(=O)O)cc1)n1ncc2cc(-c3cc4ccccc4o3)ccc21 (centres unmarked) [compound 77]
34 | 340 | CC(C)CC(c1ccc(C(=O)NCCC(=O)O)cc1)n1cc2cc(-c3ccc4cnn(C)c4c3)ccc2n1 (centres unmarked) [compound 80]
35 | > 1300 | COc1ccc2cc(-c3ccc4nn(C(CC(C)C)c5ccc(C(=O)NCCC(=O)O)cc5)cc4c3)ccc2c1 (centres unmarked) [compound 82]
36 | 136 | CCCCCCC(c1ccc(C(=O)NCCC(=O)O)cc1)n1cc2cc(-c3ccc(C(C)(C)C)cc3)ccc2n1 (centres unmarked) [compound 86]
37 | 255 | CCCCCC(c1ccc(C(=O)NCCC(=O)O)cc1)n1ncc2cc(-c3ccc(C(C)(C)C)cc3)ccc21 (centres unmarked) [compound 88]
38 | 130 | CCCCCC(c1ccc(C(=O)NCCC(=O)O)cc1)n1ncc2cc(-c3ccc(C(F)(F)F)cc3)ccc21 (centres unmarked) [compound 89]
39 | 125 | CCCC(c1ccc(C(=O)NCCC(=O)O)cc1)n1cc2cc(-c3ccc(C(F)(F)F)cc3)ccc2n1 (centres unmarked) [compound 91]
40 | 63 | O=C(O)CCNC(=O)c1ccc(C(CC2CCCCC2)n2cc3cc(-c4ccc(C(F)(F)F)cc4)ccc3n2)cc1 (centres unmarked) [compound 92]
41 | 92 | CC(C)CC(c1ccc(C(=O)NCCC(=O)O)nc1)n1cc2cc(-c3cc4ccccc4s3)ccc2n1 (centres unmarked) [compound 96]
42 | 83 | O=C(O)CCNC(=O)c1ccc(C(C2CCCCC2)n2cc3cc(-c4ccc(C(F)(F)F)cc4Cl)ccc3n2)cc1 (centres unmarked) [compound 98]
43 | 550 | O=C(O)CCNC(=O)c1ccc(C(CCC(F)(F)C(F)(F)F)n2ncc3cc(-c4ccc(C(F)(F)F)cc4)ccc32)cc1 (centres unmarked) [compound 100]
44 | 1340 | Cc1cc(-c2ccc(C(C)(C)C)cc2)cc2cn(C(CC(C)C)c3ccc(C(=O)NCCC(=O)O)nc3)nc12 (centres unmarked) [compound 108]
45 | 750 | CC(C)CC(c1ccc(C(=O)NCCC(=O)O)cc1)n1ncc2cc(-c3ccc4cnn(C)c4c3)ccc21 (centres unmarked) [compound 116]
46 | 1000 | CC(C)CC(c1ccc(C(=O)NCCC(=O)O)cc1)n1cc2cc(-c3cnc4ccccc4c3)ccc2n1 (centres unmarked) [compound 117]
47 | > 2600 | CC(C)CC(c1ccc(C(=O)NCCC(=O)O)nc1)n1ncc2cc(-c3cc(Cl)cc(Cl)c3)ccc21 (centres unmarked) [compound 119]
48 | 58 | CC(C)CC(c1ccc(C(=O)NCCC(=O)O)cc1)n1cc2cc(-c3cc4ccccc4s3)ccc2n1 (centres unmarked) [compound 120]
49 | 700 | CC(C)CC(c1ccc(C(=O)NCCC(=O)O)cc1)n1cc2cc(-c3ccc4ncccc4c3)ccc2n1 (centres unmarked) [compound 121]
50 | > 5200 | CC(C)CCn1cc(-c2ccc3c(cnn3C(CC(C)C)c3ccc(C(=O)NCCC(=O)O)cc3)c2)cn1 (centres unmarked) [compound 123]
